The structures appear in SMILES notation. Active and inactive are the calls of the source. The calls are words filed in the database; no cut-off is given here.

For orientation: inhibition means the relative decrease from the control value, in per cent. The term Ki denotes the dissociation constant of the complex between target and ligand, obtained from inhibition or displacement. Lower therefore signals tighter binding.

Assay [1] addresses Human immunodeficiency virus type 1 protease (Human immunodeficiency virus 1) (UniProt Q72874). The assay is described as follows: Percentage inhibition against HIV-1 protease was determined at a concentration of 12.5 uM.
A further assay deals with MT4. As to the kind of experiment: Inhibition of HIV-1 induced cytopathic effect in HTLV1 transformed MT-4 cells. The format is functional. To be noted: Homo sapiens, read-out: ED50 (the source's name).
Assay [2] deals with Human immunodeficiency virus type 1 protease (Human immunodeficiency virus 1, UniProt Q72874). As to the kind of experiment: Binding affinity for HIV-1 protease.
Assay [3] addresses Human immunodeficiency virus type 1 protease (Human immunodeficiency virus 1) (UniProt Q72874). As to the kind of experiment: Binding affinity against HIV-1 protease was determined at a concentration of 12.5 uM; Not active.
The target is the same in assay [4]. The assay is described as follows: Binding affinity against HIV-1 protease was determined at a concentration 12.5 uM; not active.

Regarding `COC(=O)[C@@H]([C@H](O)[C@H](Cc1ccccc1)NC(=O)[C@@H](NC(=O)OCc1ccccc1)C(C)C)[C@H](Cc1ccccc1)NC(=O)OC(C)(C)C`, the inhibition in assay [1] was determined as 20%.
As to `CC(C)(C)[C@H](NC(=O)OCc1nc2ccccc2[nH]1)C(=O)N[C@@H](Cc1ccccc1)[C@@H](O)[C@H](CO)[C@H](Cc1ccccc1)NC(=O)[C@@H](NC(=O)OCc1nc2ccccc2[nH]1)C(C)(C)C`, the EC50 with MT4 is 0.5 µM. In assay [2], this molecule displayed a Ki of 13 nM.
For `CC(C)C(NC(=O)OCc1ccccc1)C(=O)N[C@@H](Cc1ccccc1)[C@H](CO)[C@@H](O)[C@H](Cc1ccccc1)NC(=O)[C@@H](NC(=O)OCc1ccccc1)C(C)C` (single isomer, unassigned; diastereomer B) the same measures were greater than 10 µM and 510 nM.
For `CC(C)C(NC(=O)OCc1ccccc1)C(=O)N[C@@H](Cc1ccccc1)[C@@H](CO)[C@H](O)[C@H](Cc1ccccc1)NC(=O)[C@@H](NC(=O)OCc1ccccc1)C(C)C` (single isomer, unassigned; diastereomer A) the same measures were 3.7 µM and 27 nM.
For `CC(C)(C)[C@H](N)C(=O)N[C@@H](Cc1ccccc1)[C@H](O)[C@@H](CO)[C@H](Cc1ccccc1)NC(=O)[C@@H](N)C(C)(C)C`, in the assay with MT4, the EC50 was greater than 10 µM. In assay [1], this molecule showed an inhibition of 8%.
As to `CC(C)[C@H](NC(=O)OCc1ccccc1)C(=O)N[C@@H](Cc1ccccc1)[C@@H](O)[C@H](CO)[C@H](Cc1ccccc1)NC(=O)[C@H](CC(N)=O)NC(=O)OCc1ccccc1`, in the assay on MT4, the EC50 was greater than 10 µM. This molecule showed a Ki in assay [2] of 340 nM.
As for `CC(C)(C)C(NC(=O)OCc1ccccc1)C(=O)N[C@@H](Cc1ccccc1)[C@H](CO)[C@@H](O)[C@H](Cc1ccccc1)NC(=O)[C@@H](NC(=O)OCc1ccccc1)C(C)(C)C` (single isomer, unassigned; diastereomer B), the EC50 in the assay on MT4 is greater than 10 µM. This molecule had a Ki in assay [2] of 255 nM.
In the case of `CC(C)C(NC(=O)OCc1ccccc1)C(=O)N[C@@H](Cc1ccccc1)[C@@H](C(=O)O)[C@H](O)[C@H](Cc1ccccc1)NC(=O)[C@@H](NC(=O)OCc1ccccc1)C(C)C` (stereo partly specified), the Ki in assay [2] was found to be 430 nM.
For `COC(=O)[C@H]([C@@H](O)[C@H](Cc1ccccc1)NC(=O)[C@@H](NC(=O)OCc1ccccc1)C(C)C)[C@H](Cc1ccccc1)NC(=O)OC(C)(C)C`, the inhibition result in assay [3] was “inactive”.
Take `CC(C)(C)[C@H](NC(=O)OCc1nc2ccccc2[nH]1)C(=O)N[C@@H](Cc1ccccc1)[C@H](O)[C@@H](CO)[C@H](Cc1ccccc1)NC(=O)[C@@H](NC(=O)OCc1nc2ccccc2[nH]1)C(C)(C)C`: the EC50 with MT4 worked out at 4.7 µM. Further, in assay [2], the inhibitory constant (Ki) amounted to 29 nM.
As to `CC(C)(C)[C@H](N)C(=O)N[C@@H](Cc1ccccc1)[C@@H](O)[C@H](CO)[C@H](Cc1ccccc1)NC(=O)[C@@H](N)C(C)(C)C`, the EC50 in the assay with MT4 is greater than 10 µM. The molecule further showed an inhibition in assay [1] of 22%.
For the molecule `CC(C)[C@H](NC(=O)OCc1ccccc1)C(=O)N[C@@H](Cc1ccccc1)[C@H](O)[C@@H](CO)[C@H](Cc1ccccc1)NC(=O)C(NC(=O)OCc1ccccc1)C(C)(C)C` (single isomer, unassigned; diastereomer B), the EC50 in the assay with MT4 was greater than 10 µM. For the same molecule, the inhibition in assay [1] is 39%.
The corresponding values for `CC(C)(C)[C@H](NC(=O)c1nc2ccccc2[nH]1)C(=O)N[C@@H](Cc1ccccc1)[C@H](O)[C@@H](CO)[C@H](Cc1ccccc1)NC(=O)[C@@H](NC(=O)c1nc2ccccc2[nH]1)C(C)(C)C` are greater than 10 µM and 42%.
For the molecule `CC(C)(C)C(NC(=O)OCc1ccccc1)C(=O)N[C@@H](Cc1ccccc1)[C@@H](CO)[C@H](O)[C@H](Cc1ccccc1)NC(=O)[C@@H](NC(=O)OCc1ccccc1)C(C)(C)C` (single isomer, unassigned; diastereomer A), the EC50 in the assay on MT4 stood at 1.6 µM. The molecule further yielded an inhibition constant Ki in assay [2] of 13 nM.
The corresponding values for `CC(C)[C@H](NC(=O)OCc1ccccc1)C(=O)N[C@@H](Cc1ccccc1)[C@@H](O)[C@H](CO)[C@H](Cc1ccccc1)NC(=O)C(NC(=O)OCc1ccccc1)C(C)(C)C` (stereo partly specified) are 2.5 µM and 16 nM.
Consider `CC(C)[C@H](NC(=O)OCc1ccccc1)C(=O)N[C@@H](Cc1ccccc1)[C@H](O)[C@@H](C(=O)O)[C@H](Cc1ccccc1)NC(=O)OC(C)(C)C`, for which the inhibition result in assay [4] is “inactive”.
Turning to `CC(C)(C)[C@H](NC(=O)c1nc2ccccc2[nH]1)C(=O)N[C@@H](Cc1ccccc1)[C@@H](O)[C@H](CO)[C@H](Cc1ccccc1)NC(=O)[C@@H](NC(=O)c1nc2ccccc2[nH]1)C(C)(C)C`, in the assay with MT4, the EC50 is greater than 10 µM. This molecule came in with an inhibition in assay [1] of 31%.
On to `CC(C)[C@H](NC(=O)OCc1ccccc1)C(=O)N[C@@H](Cc1ccccc1)[C@@H](O)[C@H](CO)[C@H](Cc1ccccc1)NC(=O)OC(C)(C)C`, for which the EC50 in the assay on MT4 was greater than 10 µM. The molecule also registered an inhibition constant (Ki) in assay [2] of 290 nM.
As to `CC(C)[C@H](NC(=O)OCc1ccccc1)C(=O)N[C@@H](Cc1ccccc1)[C@@H](O)[C@@H](CO)[C@H](Cc1ccccc1)NC(=O)[C@@H](CC(N)=O)NC(=O)OCc1ccccc1`, the EC50 with MT4 is greater than 10 µM. Moreover, the inhibition in assay [1] is 32%.
`CC(C)[C@H](NC(=O)OCc1ccccc1)C(=O)N[C@@H](Cc1ccccc1)[C@@H](O)[C@H](C(=O)O)[C@H](Cc1ccccc1)NC(=O)OC(C)(C)C`: in assay [1], the inhibition is 18%.
As for `CC(C)(C)[C@H](NC(=O)CCc1nc2ccccc2[nH]1)C(=O)N[C@@H](Cc1ccccc1)[C@H](O)[C@@H](CO)[C@H](Cc1ccccc1)NC(=O)[C@@H](NC(=O)CCc1nc2ccccc2[nH]1)C(C)(C)C`, the EC50 with MT4 is greater than 10 µM. In assay [2], this molecule yielded a Ki of 160 nM.
The corresponding values for `CC(C)(C)[C@H](NC(=O)CCc1nc2ccccc2[nH]1)C(=O)N[C@@H](Cc1ccccc1)[C@@H](O)[C@H](CO)[C@H](Cc1ccccc1)NC(=O)[C@@H](NC(=O)CCc1nc2ccccc2[nH]1)C(C)(C)C` are 0.52 µM and 9 nM.
The corresponding values for `CC(C)[C@H](NC(=O)OCc1ccccc1)C(=O)N[C@@H](Cc1ccccc1)[C@H](O)[C@@H](CO)[C@H](Cc1ccccc1)NC(=O)OC(C)(C)C` are greater than 10 µM and 3700 nM.

These data come from ChEMBL document CHEMBL1149976, “Novel, extended transition state mimic in HIV-1 protease inhibitors with peripheral C-2-symmetry” (Bioorg Med Chem Lett, 1994).
